The subject of one data set is ES2(ovarian) cells. Description: MTT assay ES2. As to conditions: Homo sapiens, ES-2, ES2 cells; read-out: IC50. The format is cell-based, human. (In general: Formazan colour is commonly taken as a measure of viable cells.)
Data set [1] concerns (bladder)TB9 cells / HTB-9. Description: MTT assay bladder cells. The format is cell-based, human. The conditions noted are these: Homo sapiens; (bladder)TB9 cells; read-out: IC50. The method, then: (§1) Cells. Human cancer cell lines were obtained from American Type Culture Collection: HTB-9 (bladder), HeLa-S3 (cervix), DU145 (prostate), H460 (lung), MCF-7 (breast), K562 (leukocytes), HCT116 (colon), HepG2 (liver), U2OS (bone), T98G (brain), SK-MEL-5 (Skin) and OVCAR-3 (ovary). The cells were grown in following culture media: HeLa-53, DU145, MCF-7, Hep-G2 and T98G are in MEN (Earle's salts); HTB-9, H460, K562 and OVCAR-3 in RPMI-1640; HCT-116 and U2OS in McCoy-5A. They are supplemented with 10% fetal calf serum, glutamine and antibiotics, and incubated in an incubator with 5% CO2 humidified at 37° C.
(§2) MTT Assay. The procedure for MTT assay followed the method described by Carmichael et al. (1987) with modifications. The cells were seeded into a 96-well plate at concentration of 10,000/well for HTB-9, HeLa, H460, HCT116, T98G and OVCAR-3), 15,000/well for DU145, MCF-7, HepG2 and U2OS), and 40,000/well for K562 for 24 hours before drug-treatment. The cells were then exposed to the drugs for 48 hours (72 hours for HepG2 and U2OS, and 96 hours for MCF-7). After the drug-treatment, MTT (0.5 mg/mL) was added to cultures and incubated for an hour. The formazan (product of the reduction of tetrazolium by viable cells) formed and was dissolved with DMSO and the O.D. at 490 nm, and was measured by an ELISA reader. The MTT level of the cells before drug-treatment was also measured (T0). The % cell-growth (% G) is calculated as: % G=(TD−T0/TC−T0)×100(1), where TC or TD represents O.D. readings of control or drug-treated cells. When T0>TD, then the cytotoxicity (LC) expressed as % of the control is calculated as: % LC=(TD−T0/T0)×100(2).

In a further data set the test system is (lung)H460 cells. Description: MTT assay H460. The format is cell-based. As to conditions: Homo sapiens, NCI-H460. The method, then: as §1
(§3) MTT Assay. The procedure for MTT assay followed the method described by Carmichael et al. (1987) with modifications. […] The formazan (product of the reduction of tetrazolium by viable cells) formed and was dissolved with DMSO and the O.D. at 490 nm, and was measured by an ELISA reader. The MTT level of the cells before drug-treatment was also measured (T0). The % cell-growth (% G) is calculated as: % G=(TD−T0/TC−T0)×100(1), where TC or TD represents O.D. readings of control or drug-treated cells. When T0>TD, then the cytotoxicity (LC) expressed as % of the control is calculated as: % LC=(TD−T0/T0)×100(2).

The test system of a further data set is (Prostate) DU145. Description: MTT assay DU145. The format is cell-based, human. The conditions noted are these: Homo sapiens, DU-145, read-out: IC50. The protocol: as §1, §3
The next data set has as its system (Liver) HepG2. Description: MTT assay HepG2. The format is cell-based, human. The conditions noted are these: Homo sapiens, read-out: IC50. The method, then: as §1, §3
The subject of another data set is (brain) T98G. Description: MTT assay T98G. The format is cell-based. The conditions noted are these: Homo sapiens. The protocol:
as §1, §3

Another data set concerns (Skin) SK-MELS. The data set is described as follows: MTT assay SK-MEL-5. The conditions noted are these: Homo sapiens, SK-MEL-5, read-out: IC50. The format is cell-based, human. The protocol:
as §1, §3

The test system of the next data set is (Breast)MCF7. The data set is described as follows: MTT assay MCF7. The format is cell-based, human. As to conditions: Homo sapiens, read-out: IC50. The method, then:
as §1, §3

The subject of data set [2] is Fibronectin secretion from ES2 cells. Description: Fibronectin secretion (Western blot), ES2 cells. The format is cell-based, human. The conditions noted are these: for % inhibition of Fibronectin secretion: ES2 cells, 80 ug/ml. For orientation: In western blotting, separated proteins are transferred to a membrane and probed.
Data set [3] relates to Fibronectin secretion from lung carcinoma cells (H460). Description: Fibronectin secretion (Western blot), H460 cells. The format is cell-based, human. The conditions noted are these: Homo sapiens, NCI-H460, H460 cells, 10 ug/ml.
In data set [4] the test system is Fibronectin secretion from bladder carcinoma cells (HTB-9). Description: Fibronectin secretion (Western blot), HTB-9 cells. The format is cell-based, human. The conditions noted are these: Homo sapiens, 10 ug/ml.
Data set [5] deals with Fibronectin secretion from liver HepG2 cells. The data set is described as follows: Fibronectin secretion (Western blot), HepG2 cells. The format is cell-based, human.
For data set [6], the system named is Fibronectin secretion from brain glioblastoma T98G cells. The data set is described as follows: Fibronectin secretion (Western blot), T98G cells. The format is cell-based, human. The conditions noted are these: Homo sapiens, T98G, 10 ug/ml.
Data set [7] has as its system Fibronectin secretion from skin SK-Mel-5 cells. The data set is described as follows: Fibronectin secretion (Western blot), SK-MEL-5 cells. The format is cell-based, human. The conditions noted are these: Homo sapiens, 10 ug/ml.
Another data set relates to tumor growth. Description: MTT anticancer activity of Y, X and hydrolysis products (FIG. 4C). The format is cell-based. The protocol: as §2
(A) Alkaline Hydrolysis of Xanifolia-Y: 20 mg of Xanifolia-Y was dissolved in 0.5 mL of 1M NaOH. The solution was incubated in an 80° C. water bath for 4 hours. It was cooled to room temperature before being neutralized with 0.5 mL 1 N HCl (adjusted pH to about 3). The mixture was extracted with 2 mL 1-butanol 3 times. The butanol fractions were collected and lyophilized. The hydrolyzed saponin was further purified with HPLC in a C-18 column eluted with 25% acetonitrile.
(B) Acid Hydrolysis of Xanifolia-Y: 15 mg Xanifolia-Y was dissolved in 1 mL of Methanol. 1 mL of 2N HCl was then added. The mixture was refluxed in an 80° C. water bath for 5 hours. The solution was then neutralized by adding 2 mL of 1N NaOH (to a final pH 3-4). The aglycone was then extracted with ethylacetate 3 mL×3. The extracts were collected and pooled. Further isolation of aglycone (sugar-removed Xanifolia-Y) was achieved by HPLC with isocratic elution of 80% acetonitrile.

The next data set concerns human red blood cells. Description: Hemolytic activity. The format is cell-based. The conditions noted are these: FIG. 3D. The method, then: Methods: • Human whole blood was obtained from the Houston Gulf Coast Blood Center. • Red blood cells were isolated by the following method: Human blood (in EDTA) was diluted 1:1 with PBS, underlay with 4 mL of Histopaque-1077 (SIGMA) and was centrifuged at 400 g for 30 min. • Red blood cells (RBC) were collected and washed three times with PBS. • 10% suspensions of RBC were prepared with PBS before use. • 50 μL of RBC suspension was added to 2 mL of saponins with different concentration. • The suspension was mixed by vortexing then left to sit at room temperature for 60 minutes. • The suspension was centrifuged at 3000 rpm for 5 min. Absorbance of the supernatant was measured at 540 nm.

A further data set relates to K562 cells membrane. Description: EM study of membrane structure. The format is cell-based, human. The conditions noted are these: 20 uM, 60 min. The text has this:
Xanifolia-Y has a potent hemolytic activity in red blood cells (FIG. 27). To study the effect of Xanifolia-Y on membrane structure, the morphology of cell membrane treated with Xanifolia-Y was examined with EM. […] Solvent DMSO and AKOH-Y (a derivative of Xanifolia-Y without the angeloyl group and it has no activity) served as controls. Cells were negative stained with 1% UAc and subsequently examined with EM.

The subject of data set [8] is Leishmania Major (promastigotes). Description: Cell growth of Leishmania parasites by MTT assay. The format is cell-based. The conditions noted are these: read-out: IC50, cytotoxic to Leishmania Major (promastigotes). The protocol: Method: Leishmania parasites (Leishmania major: MRHO/SU/59/P/LV39) were grown in culture medium in a T75 flask at room temperature. Promastigotes of Leishmania major (approximately 40 million per ml) were used in the experiment. 1.2 ml cell culture was transferred to a well of the 24-wells plate. Saponin Y10 (0.2 ml in medium) with different concentrations (final 6.25-200 ug/ml) was added to culture and cells were grown for 1-5 days at room temperature. At the end of drug-treatment, 150 ul of MTT (5 mg/ml in PBS) was added to each well and incubated for 4 hours. Formazan formed in cells was dissolved with DMSO and the OD at 490 nm was determined by an ELISA reader.

Results on 3 compounds are retold here after patent publication US10213451B2, “Methods and compounds for modulating the secretion or expression of adhesion proteins or angiopoietins of cells” (PACIFIC ARROW LIMITED, priority 2004, dated 2019).

In brackets after ≈: the same amount, converted by molar mass.

In the case of `C/C=C(/C)C(=O)O[C@H]1[C@H](OC(=O)/C(C)=C\C)[C@@]23C(CC1(C)C)[C@]1(CCC4[C@@]5(C)CC[C@H](O)C(C)(C)C5CC[C@@]4(C)[C@]1(C)C[C@H]2O)O[C@@H]3O` (stereo partly drawn) [ACH-Mb5], the IC50 with ES2(ovarian) cells turned out to be 8 µg/mL (≈ 11.9 µM); in data set [1] it was 5.7 µg/mL (≈ 8.5 µM); in the data set on (lung)H460 cells it was 6.5 µg/mL (≈ 9.69 µM); in the data set with (Prostate) DU145 it was 6.4 µg/mL (≈ 9.54 µM); with (Liver) HepG2, 4 µg/mL (≈ 5.96 µM); with (brain) T98G it was 6 µg/mL (≈ 8.94 µM). Further, the results for the IC50 in the data set on (Skin) SK-MELS and in the data set with (Breast)MCF7 were 22 µg/mL (≈ 32.8 µM) and 13 µg/mL (≈ 19.4 µM), respectively. Besides, the inhibition at 10 µg/mL in data set [2] (Homo sapiens, ES-2, ES2 cells, 10 ug/ml) came out at 30%; in [3] it was 22%; in data set [4], 30%; in data set [5] (Homo sapiens, HepG2, HepG2 cells, 10 ug/ml), 25%; in [6], 35%; in data set [7], 20%.
For `CC1(C)CC2C3=CCC4[C@@]5(C)CC[C@H](O[C@@H]6OC(C(=O)O)[C@@H](O)[C@@H](O[C@@H]7O[C@@H](CO)[C@@H](O)C7O)C6O[C@@H]6OC(CO)[C@H](O)[C@@H](O)C6O)C(C)(C)C5CC[C@@]4(C)[C@]3(C)[C@@H](O)[C@@H](O)[C@@]2(CO)[C@@H](O)[C@@H]1O` (stereo partly drawn) [AKOH-Y], the “anticancer activity after alkaline hydrolysis” value with tumor growth is listed as “lost anticancer activity”. In addition, the “MTT activities of hydrolysed products of compound Y” value in the data set with tumor growth (FIG. 4C, 4D) is given as “lost MTT activities”. Also, the anticancer activity entry in the data set with tumor growth (FIG. 4C, even at 120 μg/ml) was “completely abolishes its anticancer activity”; in the data set on tumor growth (even at 120 ug/ml) it was “completely abolishes its anticancer activity”. The “hemolytic activity of hydrolysed products of compound Y” value with human red blood cells is given as “destroyed the hemolytic activity”. Moreover, the “% inhibition of Fibronectin secretion” value in [2] and in data set [2] (listed as AKOH) was “no effect” in each case. For the same compound, the “inhibition effect on Fibronectin secretion” value in [5] (HepG2 cells, 80 ug/ml) is “Minimum or No effect”. The “membrane morphology (EM): patches of pits” value with K562 cells membrane is listed as “not”.
On to `C/C=C(/C)C(=O)O[C@H]1[C@H](OC(=O)/C(C)=C\C)[C@@]2(CO)C(CC1(C)C)C1=CCC3[C@@]4(C)CC[C@H](O[C@@H]5OC(C(=O)O)[C@@H](O)[C@@H](O[C@@H]6O[C@@H](CO)[C@@H](O)C6O)C5O[C@@H]5OC(CO)[C@H](O)[C@@H](O)C5O)C(C)(C)C4CC[C@@]3(C)[C@]1(C)C[C@H]2O` (stereo partly drawn) [Xanifolia Y10, 3-O-[β-galactopyranosyl (1→2)]-α-arabinofuranosyl (1→3)-β-glucuronopyranosyl-21, 22-O-diangeloyl-3β, 16α, 21β, 22α, 28-pentahydroxyolean-12-ene], for which the IC50 in [8] was around 15 µg/mL (≈ 13.3 µM).

The IC50 is the point on the concentration scale where inhibition reaches its midpoint. In general, inhibition refers to how much of the control response was suppressed.
